By AC50 is commonly meant the midpoint of the concentration-response curve, whichever way the signal moves.

The target of the assay is T1, human PAH with the R408W mutation (Homo sapiens, UniProt P00439, R408W).
T1 construct: expressed in transfected cells
T1 sequence (P00439 1-452 R408W): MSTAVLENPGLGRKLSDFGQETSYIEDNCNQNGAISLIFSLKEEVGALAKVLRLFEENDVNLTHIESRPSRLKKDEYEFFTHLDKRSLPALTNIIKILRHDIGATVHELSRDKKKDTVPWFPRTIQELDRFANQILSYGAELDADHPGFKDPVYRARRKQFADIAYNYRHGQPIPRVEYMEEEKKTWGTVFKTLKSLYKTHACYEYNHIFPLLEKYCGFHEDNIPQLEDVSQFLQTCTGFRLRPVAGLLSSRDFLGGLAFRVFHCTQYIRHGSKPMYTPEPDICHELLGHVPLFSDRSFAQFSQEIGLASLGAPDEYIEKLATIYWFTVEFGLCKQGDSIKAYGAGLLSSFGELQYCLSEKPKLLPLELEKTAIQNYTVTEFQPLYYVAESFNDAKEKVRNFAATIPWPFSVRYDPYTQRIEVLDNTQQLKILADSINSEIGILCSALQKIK
Description: Cell Based Phenylalanine Flux Assay. The following applies: A375 cells expressing human R408W PAH; 24 hrs compound incubation; 13C-Tyrosine by LC-MS; average where tested multiple times; read-out: AC50.
Description: Compounds were resuspended in DMSO, and 2-fold serial dilutions were performed to generate a 10-point dose curve. Compounds were added to plated cells in a total volume of 100 pal, and a final DMSO concentration of 0.5%. Each compound was tested in duplicate. Following compound addition, cells were placed in a 5% CO2, 37° C. tissue culture incubator for 24 hrs. After the incubation period, 20 μM sepiapterin and 800 μM 13C9,15N-Phenylalanine were added. After 4 hours, cell media was removed. An aliquot of 10 μl of cell media was combined with 200 μl of extraction buffer (80% acetonitrile/20% H2O) for each well. Determination of ^13C-Tyrosine concentration was assessed by liquid chromatography mass spectrometry.
Regarding `O=C(c1nnc(-c2ccc(F)cn2)o1)N1CCc2[nH]cnc2[C@@H]1c1ncc2ccccc2n1` [Example 167, (R)-(5-(5-fluoropyridin-2-yl)-1,3,4-oxadiazol-2-yl)(4-(quinazolin-2-yl)-6,7-dihydro-1H-imidazo[4,5-c]pyridin-5(4H)-yl)methanone], the AC50 lay in the range of 1000 to 5000 nM.

`O=C(c1nnc(-c2ccc(F)cn2)o1)N1CCc2[nH]cnc2[C@H]1c1ncc2ccccc2n1` [Example 168, (S)-(5-(5-fluoropyridin-2-yl)-1,3,4-oxadiazol-2-yl)(4-(quinazolin-2-yl)-6,7-dihydro-1H-imidazo[4,5-c]pyridin-5(4H)-yl)methanone]: the AC50 is under 500 nM.

On to `O=C(c1nnc(-c2ccc(C(F)(F)F)cn2)o1)N1CCc2[nH]cnc2[C@@H]1c1ncc2ccccc2n1` [Example 169, (R)-(4-(quinazolin-2-yl)-6,7-dihydro-1H-imidazo[4,5-c]pyridin-5(4H)-yl)(5-(5-(trifluoromethyl)pyridin-2-yl)-1,3,4-oxadiazol-2-yl)methanone], for which the AC50 is 1000 to 5000 nM.

For `O=C(c1nnc(-c2ccc(C(F)(F)F)cn2)o1)N1CCc2[nH]cnc2[C@H]1c1ncc2ccccc2n1` [Example 170, (S)-(4-(quinazolin-2-yl)-6,7-dihydro-1H-imidazo[4,5-c]pyridin-5(4H)-yl)(5-(5-(trifluoromethyl)pyridin-2-yl)-1,3,4-oxadiazol-2-yl)methanone], the AC50 was 500 to 1000 nM.

As for `Cc1ccc(-c2nnc(C(=O)N3CCc4[nH]cnc4[C@H]3c3ncc4ccccc4n3)o2)nc1` [Example 171, (S)-(5-(5-methylpyridin-2-yl)-1,3,4-oxadiazol-2-yl)(4-(quinazolin-2-yl)-6,7-dihydro-1H-imidazo[4,5-c]pyridin-5(4H)-yl)methanone], the AC50 is under 500 nM.

Turning to `Cc1ccc(-c2nnc(C(=O)N3CCc4[nH]cnc4[C@@H]3c3ncc4ccccc4n3)o2)nc1` [Example 172, (R)-(5-(5-methylpyridin-2-yl)-1,3,4-oxadiazol-2-yl)(4-(quinazolin-2-yl)-6,7-dihydro-1H-imidazo[4,5-c]pyridin-5(4H)-yl)methanone], the concentration at half-maximal activity (AC50) fell in the range of 1000 to 5000 nM.

With `O=C(c1nnc(-c2cc(C(F)(F)F)ccn2)o1)N1CCc2[nH]cnc2[C@H]1c1ncc2ccccc2n1` [Example 173, (S)-(4-(quinazolin-2-yl)-6,7-dihydro-1H-imidazo[4,5-c]pyridin-5(4H)-yl)(5-(4-(trifluoromethyl)pyridin-2-yl)-1,3,4-oxadiazol-2-yl)methanone], the AC50 was under 500 nM.

Turning to `O=C(c1nnc(-c2cc(C(F)(F)F)ccn2)o1)N1CCc2[nH]cnc2[C@@H]1c1ncc2ccccc2n1` [Example 174, (R)-(4-(quinazolin-2-yl)-6,7-dihydro-1H-imidazo[4,5-c]pyridin-5(4H)-yl)(5-(4-(trifluoromethyl)pyridin-2-yl)-1,3,4-oxadiazol-2-yl)methanone], the AC50 was in the range of 1000 to 5000 nM.

Turning to `O=C(c1nnc(-c2cc[nH]n2)o1)N1CCc2[nH]cnc2[C@H]1c1ncc2ccccc2n1` [Example 175, (S)-(5-(1H-pyrazol-3-yl)-1,3,4-oxadiazol-2-yl)(4-(quinazolin-2-yl)-6,7-dihydro-1H-imidazo[4,5-c]pyridin-5(4H)-yl)methanone], the AC50 was in the range of 500 to 1000 nM.

As for `O=C(c1nnc(-c2cc[nH]n2)o1)N1CCc2[nH]cnc2[C@@H]1c1ncc2ccccc2n1` [Example 176, (R)-(5-(1H-pyrazol-3-yl)-1,3,4-oxadiazol-2-yl)(4-(quinazolin-2-yl)-6,7-dihydro-1H-imidazo[4,5-c]pyridin-5(4H)-yl)methanone], the AC50 was over 5000 nM.

For `O=C(c1nnc(-c2cccnc2)o1)N1CCc2[nH]cnc2[C@H]1c1ncc2ccccc2n1` [Example 177, (S)-(5-(pyridin-3-yl)-1,3,4-oxadiazol-2-yl)(4-(quinazolin-2-yl)-6,7-dihydro-1H-imidazo[4,5-c]pyridin-5(4H)-yl)methanone], the half-maximal activity concentration (AC50) was under 500 nM.

With `O=C(c1nnc(-c2cccnc2)o1)N1CCc2[nH]cnc2[C@@H]1c1ncc2ccccc2n1` [Example 178, (R)-(5-(pyridin-3-yl)-1,3,4-oxadiazol-2-yl)(4-(quinazolin-2-yl)-6,7-dihydro-1H-imidazo[4,5-c]pyridin-5(4H)-yl)methanone], the AC50 lay in the range of 1000 to 5000 nM.

As to `O=C(c1nnc(-c2ccncc2)o1)N1CCc2[nH]cnc2[C@H]1c1ncc2ccccc2n1` [Example 179, (S)-(5-(pyridin-4-yl)-1,3,4-oxadiazol-2-yl)(4-(quinazolin-2-yl)-6,7-dihydro-1H-imidazo[4,5-c]pyridin-5(4H)-yl)methanone], the AC50 is under 500 nM.

Turning to `O=C(c1nnc(-c2ccncc2)o1)N1CCc2[nH]cnc2[C@@H]1c1ncc2ccccc2n1` [Example 180, (R)-(5-(pyridin-4-yl)-1,3,4-oxadiazol-2-yl)(4-(quinazolin-2-yl)-6,7-dihydro-1H-imidazo[4,5-c]pyridin-5(4H)-yl)methanone], the AC50 was over 5000 nM.

For `COc1ccc(-c2nnc(C(=O)N3CCc4[nH]cnc4[C@H]3c3ncc4ccccc4n3)o2)nc1` [Example 181, (S)-(5-(5-methoxypyridin-2-yl)-1,3,4-oxadiazol-2-yl)(4-(quinazolin-2-yl)-6,7-dihydro-1H-imidazo[4,5-c]pyridin-5(4H)-yl)methanone], the AC50 is under 500 nM.

For the molecule `COc1ccc(-c2nnc(C(=O)N3CCc4[nH]cnc4[C@@H]3c3ncc4ccccc4n3)o2)nc1` [Example 182, (R)-(5-(5-methoxypyridin-2-yl)-1,3,4-oxadiazol-2-yl)(4-(quinazolin-2-yl)-6,7-dihydro-1H-imidazo[4,5-c]pyridin-5(4H)-yl)methanone], the AC50 was 1000 to 5000 nM.

On to `Cn1ncnc1C(=O)N1CCc2[nH]cnc2[C@@H]1c1ncc2ccccc2n1` [Example 183, (R)-(1-methyl-1H-1,2,4-triazol-5-yl)(4-(quinazolin-2-yl)-6,7-dihydro-1H-imidazo[4,5-c]pyridin-5(4H)-yl)methanone], for which the AC50 fell in the range of 1000 to 5000 nM.

`Cn1ncnc1C(=O)N1CCc2[nH]cnc2[C@H]1c1ncc2ccccc2n1` [Example 184, (S)-(1-methyl-1H-1,2,4-triazol-5-yl)(4-(quinazolin-2-yl)-6,7-dihydro-1H-imidazo[4,5-c]pyridin-5(4H)-yl)methanone]: the AC50 was under 500 nM.

On to `O=C(c1nnc(-c2cnn(C(F)F)c2)o1)N1CCc2[nH]cnc2[C@H]1c1ncc2ccccc2n1` [Example 185, (S)-(5-(1-(difluoromethyl)-1H-pyrazol-4-yl)-1,3,4-oxadiazol-2-yl)(4-(quinazolin-2-yl)-6,7-dihydro-1H-imidazo[4,5-c]pyridin-5(4H)-yl)methanone], for which the AC50 was under 500 nM.

Regarding `O=C(c1nnc(-c2cnn(C(F)F)c2)o1)N1CCc2[nH]cnc2[C@@H]1c1ncc2ccccc2n1` [Example 186, (R)-(5-(1-(difluoromethyl)-1H-pyrazol-4-yl)-1,3,4-oxadiazol-2-yl)(4-(quinazolin-2-yl)-6,7-dihydro-1H-imidazo[4,5-c]pyridin-5(4H)-yl)methanone], the AC50 is over 5000 nM.

As for `O=C(c1nnc(-c2cnn(C3CCC3)c2)o1)N1CCc2[nH]cnc2[C@H]1c1ncc2ccccc2n1` [Example 187, (S)-(5-(1-cyclobutyl-1H-pyrazol-4-yl)-1,3,4-oxadiazol-2-yl)(4-(quinazolin-2-yl)-6,7-dihydro-1H-imidazo[4,5-c]pyridin-5(4H)-yl)methanone], the AC50 was under 500 nM.

For `O=C(c1nnc(-c2cnn(C3CCC3)c2)o1)N1CCc2[nH]cnc2[C@@H]1c1ncc2ccccc2n1` [Example 188, (R)-(5-(1-cyclobutyl-1H-pyrazol-4-yl)-1,3,4-oxadiazol-2-yl)(4-(quinazolin-2-yl)-6,7-dihydro-1H-imidazo[4,5-c]pyridin-5(4H)-yl)methanone], the AC50 was 1000 to 5000 nM.

`O=C(c1nnc(-c2ccn(C(F)F)n2)o1)N1CCc2[nH]cnc2[C@H]1c1ncc2ccccc2n1` [Example 189, (S)-(5-(1-(difluoromethyl)-1H-pyrazol-3-yl)-1,3,4-oxadiazol-2-yl)(4-(quinazolin-2-yl)-6,7-dihydro-1H-imidazo[4,5-c]pyridin-5(4H)-yl)methanone]: the concentration at half-maximal activity (AC50) was under 500 nM.

With `O=C(c1nnc(-c2ccn(C(F)F)n2)o1)N1CCc2[nH]cnc2[C@@H]1c1ncc2ccccc2n1` [Example 190, (R)-(5-(1-(difluoromethyl)-1H-pyrazol-3-yl)-1,3,4-oxadiazol-2-yl)(4-(quinazolin-2-yl)-6,7-dihydro-1H-imidazo[4,5-c]pyridin-5(4H)-yl)methanone], the AC50 is 1000 to 5000 nM.

In the case of `O=C(c1nnc(-c2cnccn2)o1)N1CCc2[nH]cnc2[C@@H]1c1ncc2ccccc2n1` [Example 191, (R)-(5-(pyrazin-2-yl)-1,3,4-oxadiazol-2-yl)(4-(quinazolin-2-yl)-6,7-dihydro-1H-imidazo[4,5-c]pyridin-5(4H)-yl)methanone], the AC50 was over 5000 nM.

In the case of `O=C(c1nnc(-c2cnccn2)o1)N1CCc2[nH]cnc2[C@H]1c1ncc2ccccc2n1` [Example 192, (S)-(5-(pyrazin-2-yl)-1,3,4-oxadiazol-2-yl)(4-(quinazolin-2-yl)-6,7-dihydro-1H-imidazo[4,5-c]pyridin-5(4H)-yl)methanone], the AC50 is 500 to 1000 nM.

With `Cc1nc(-c2ccccn2)oc1C(=O)N1CCc2[nH]cnc2[C@H]1c1ncc2ccccc2n1` [Example 193, (S)-(4-methyl-2-(pyridin-2-yl)oxazol-5-yl)(4-(quinazolin-2-yl)-6,7-dihydro-1H-imidazo[4,5-c]pyridin-5(4H)-yl)methanone], the AC50 was under 500 nM.

The values above are taken from patent publication US20250262201A1, “COMPOUNDS AND METHODS USEFUL FOR STABILIZING PHENYLALANINE HYDROXYLASE MUTATIONS” (Agios Pharmaceuticals, Inc., priority 2022, published 2025).
